Measured values as given in PubChem BioAssay (NCI).
Where “and” joins values, the source holds several entries; their conditions need not be identical. Equal entries are not always repeated.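 Five concentrations, 48 hours, 96-well plates. GI50 = concentration required for 50% inhibition of growth. The concentration for full growth arrest is given as TGI.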

Tests used:
Test in all cases: inhibition of tumour cell growth, NCI panel, 48 h
HCT-15 colon = system: HCT-15 colon
KM12 colon = system: KM12 colon
NCI-H226 lung = system: NCI-H226 lung
T-47D breast = system: T-47D breast
ACHN renal = system: ACHN renal
OVCAR-8 ovarian = system: OVCAR-8 ovarian
HCT-116 colon = system: HCT-116 colon
NCI/ADR-RES ovarian = system: NCI/ADR-RES ovarian
HCC-2998 colon = system: HCC-2998 colon
BT-549 breast = system: BT-549 breast

Compound	TGI (HCT-15 colon) [µM]	TGI (KM12 colon)	TGI (NCI-H226 lung) [µM]	TGI (T-47D breast) [µM]	TGI (ACHN renal) [µM]	TGI (OVCAR-8 ovarian) [µM]	TGI (HCT-116 colon) [µM]	TGI (NCI/ADR-RES ovarian) [µM]	TGI (HCC-2998 colon) [µM]	GI50 (HCT-15 colon)	GI50 (KM12 colon)	GI50 (T-47D breast) [µM]	GI50 (ACHN renal)	GI50 (BT-549 breast) [µM]	TGI (BT-549 breast) [µM]	GI50 (OVCAR-8 ovarian) [µM]	GI50 (HCT-116 colon)	GI50 (HCC-2998 colon)	GI50 (NCI/ADR-RES ovarian)	GI50 (NCI-H226 lung) [µM]
OCCN(CCO)c1nc(N2CCCCC2)c2nc(N(CCO)CCO)nc(N3CCCCC3)c2n1	> 100	> 100 µM	> 100	> 100	> 100	> 100	> 100	> 100	36.4	–	–	–	–	–	–	–	–	–	–	–
COc1ccc(C2=NN(C(C)=O)C(c3ccc(Oc4ccnc5cc(Cl)ccc45)c(OC)c3)C2)cc1 (stereo not drawn)	> 100	> 100 µM	–	34.9	> 100	> 100	> 100	–	> 100	> 100 µM	> 100 µM	5.54	4.03 µM	4	> 100	3.63	2.61 µM	> 100 µM	–	–
CCOC(=O)c1c(-c2ccc(OC)c(O)c2)c(C#N)c(=S)n(C2OC(COC(C)=O)C(OC(C)=O)C(OC(C)=O)C2OC(C)=O)c1-c1ccccc1 (stereo not drawn)	> 100	83.1 µM and > 100 µM	> 100	–	> 100	> 100	> 100	> 100	> 100	43.1 µM and > 100 µM	27 µM and > 100 µM	–	36.6 µM and > 100 µM	–	64	–	35.7 µM and > 100 µM	31.8 µM and > 100 µM	48.6 µM and > 100 µM	–
C[N+](C)(C)C1CC([N+](C)(C)C)C2c3ccccc3C21 (stereo not drawn)	> 100	> 100 µM	> 100	–	> 100	> 100	> 100	–	> 100	–	–	–	–	–	–	–	–	–	–	–
Cc1ccc2[nH]c(C(=O)NN3C(=O)C(C)SC34CCC(C)CC4)c(-c3ccccc3)c2c1 (stereo not drawn)	53.1	35.2 µM	35.5	85.7	44.2	53.2	34.5	–	31.7	19.4 µM	15.4 µM	19.4	19.9 µM	19.4	36.3	21.2	15.2 µM	16.6 µM	–	17.3
O=S1(=O)c2cc(S(=O)(=O)n3ccnc3)ccc2NC2=NCCCN21	–	89.5 µM	46.7	–	> 100	70	85.8	–	55.3	–	–	–	–	–	–	–	–	–	–	–
N#CC(C(=O)CCC(=O)Nc1cccc(C(F)(F)F)c1)c1ccccc1 (stereo not drawn)	> 100	> 100 µM	> 100	–	> 100	> 100	> 100	–	> 100	–	–	–	–	–	–	–	–	–	–	–
COc1ccccc1NC(=O)C1=C(C)NC(C)=C(C(=O)Nc2ccccc2OC)C1c1ccccc1Cl	> 100	> 100 µM	> 100	–	> 100	> 100	> 100	–	> 100	–	–	–	–	–	–	–	–	–	–	–
CCOC(=O)Nc1ccc2c(c1)C(=O)N(CC)c1ccccc1O2	> 100	> 100 µM	> 100	–	> 100	> 100	> 100	> 100	> 100	0.0746 µM	0.0661 µM	–	0.232 µM	0.184	16.9	0.235	0.0829 µM	0.309 µM	0.124 µM	0.796
